Data set [1] deals with T1, HIV protease (Human immunodeficiency virus type 1 group M subtype B, UniProt P04585).
T1 construct: HIV protease is diluted in the assay buffer to a final enzyme concentration of 12.3 nanomolar, based on a molecular weight of 10,780
Briefly: HIV protease enzyme assay (fluorogenic substrate 2-aminobenzoyl-Ile-Nle-Phe(p-NO2)-Gln-ArgNH2). The data set is classed as biochemical. An excerpt: The compounds of the present invention are effective HIV protease inhibitors. Utilizing an enzyme assay as described below, the compounds set forth in the examples herein disclosed inhibited the HIV enzyme. The preferred compounds of the present invention and their calculated IC50 (inhibiting concentration 50%, i.e., the concentration at which the inhibitor compound reduces enzyme activity by 50%) values are sh6wn in Table 16. The enzyme method is described below. The substrate is 2-aminobenzoyl-Ile-Nle-Phe(p-NO2)-Gln-ArgNH2. The positive control is MVT-101 (Miller, M. et al, Science, 246, 1149 (1989)] The assay conditions are as follows:
The above described substrate is dissolved in DMSO, then diluted 10 fold in assay buffer. Final substrate concentration in the assay is 80 μM.
HIV protease is diluted in the assay buffer to a final enzyme concentration of 12.3 nanomolar, based on a molecular weight of 10,780.
The final concentration of DMSO is 14% and the final concentration of glycerol is 18%. The test compound is dissolved in DMSO and diluted in DMSO to 10×the test concentration; 10 μl of the enzyme preparation is added, the materials mixed and then the mixture is incubated at ambient temperature for 15 minutes. The enzyme reaction is initiated by the addition of 40 μl of substrate. The increase in fluorescence is monitored at 4 time points (0, 8, 16 and 24 minutes) at ambient temperature. Each assay is carried out in duplicate wells.

Data set [2] deals with CEM cells. In words: CEM cell assay: intrinsic toxicity of test compound in uninfected cells (MTT). The format is cell-based. Particulars: Table 10, CEM cells without virus, 7 days. As to the method: (§1) The HIV inhibition assay method of acutely infected cells is an automated tetrazolium based calorimetric assay essentially that reported by Pauwles et al, J. Virol. Methods, 20, 309-321 (1988). Assays were performed in 96-well tissue culture plates. CEM cells, a CD4+ cell line, were grown in RPMI-1640 medium (Gibco) supplemented with a 10% fetal calf serum and were then treated with polybrene (2 μg/ml). An 80 μl volume of medium containing 1×10^4 cells was dispensed into each well of the tissue culture plate. To each well was added a 100 μl volume of tesc compound dissolved in tissue culture medium (or medium without test compound as a control) to achieve the desired final concentration and the cells were incubated at 37° C. for 1 hour. A frozen culture of HIV-1 was diluted in culture medium to a concentration of 5×10^4 TCID50 per ml (TCID50=the dose of virus that infects 50% of cells in tissue culture), and a 20 μL volume of the virus sample (containing 1000 TCID50 of virus) was added to wells containing test compound and to wells containing only medium (infected control cells). Several wells received culture medium without virus (uninfected control cells). Likewise, the intrinsic toxicity of the test compound was determined by adding medium without virus to several wells containing test compound. In summary, the tissue culture plates contained the following experiments:
(§2) In experiments 2 and 4 the final concentrations of test compounds were 1, 10, 100 and 500 μg/ml. Either azidothymidine (AZT) or dideoxyinosine (ddI) was included as a positive drug control. […] DMSO was added to all control wells at an appropriate concentration.
(§3) Following the addition of virus, cells were incubated at 37° C. in a humidified, 5% CO2 atmosphere for 7 days. Test compounds could be added on days 0, 2 and 5 if desired. On day 7, post-infection, the cells in each well were resuspended and a 100 μl sample of each cell suspension was removed for assay. A 20 μL volume of a 5 mg/ml solution of 3-(4,5-dimethylthiazol-2-yl)-2,5-diphenyltetrazolium bromide (MTT) was added to each 100 μL cell suspension, and the cells were incubated for 4 hours at […] in a 5% CO2 environment. […] To each sample was added 100 μl of 10% sodium dodecylsulfate in 0.01 N HCl to lyse the cells, and samples were incubated overnight. The absorbance at 590 nm was determined for each sample using a Molecular Devices microplate reader. Absorbance values for each set of wells is compared to assess viral control infection, uninfected control cell response as well as test compound by cytotoxicity and antiviral efficacy.

Data set [3] relates to HIV-1. Briefly: CEM cell assay: HIV inhibition in acutely infected cells (MTT). The data set is classed as cell-based. Particulars: Human immunodeficiency virus 1, CCRF-CEM, 168 h. The protocol: The effectiveness of compounds of the present invention were determined in a CEM cell assay.
as §1, §2, §3

Setting [4] is: Table 10, CEM cells infected with HIV-1, 7 days, MTT, read-out: EC50.

pEC50, pIC50: −log10 of the molar value. Where two headings read alike, the source gives them in different places.

The record followed here is patent US6743929B1, “Sulfonylalkanoylamino hydroxyethylamino sulfonamides useful as retroviral protease inhibitors” (G. D. Searle & Co., priority 1992, dated 2004).

A word on the pIC50: it is the IC50 on a negative log10 scale, so that one unit is a factor of ten. A lower pIC50 goes with a high IC50. In general, pEC50 refers to the EC50 on a negative log10 scale, so that one unit is a factor of ten.

The compound `CC(C)CCN(C[C@@H](O)[C@H](Cc1ccccc1)NC(=O)[C@H](C)CS(C)(=O)=O)S(=O)(=O)c1ccc(N)cc1` (relative stereo) [Example 11, Propanamide, N-[2-Hydroxy-3-[(3-methylbutyl)(4-aminophenylsulfonyl)amino]-1-(phenylmethyl)propyl]-2-methyl-3-(methylsulfonyl)-,[1S-[1R*(R*),2S*]]-] gave a negative-log IC50 (pIC50) in data set [1] of 8.11. Moreover, the “TD50 (nM)” value in data set [2] was 170,000 nM. Moreover, the negative logarithm of the EC50 (pEC50) in data set [3] (setting [4]) was 7.35.
In the case of `CC(C)CN(C[C@@H](O)[C@H](Cc1ccccc1)NC(=O)[C@H](C)CS(C)(=O)=O)S(=O)(=O)c1ccccc1` (relative stereo) [Example 3, Propanamide, N-[2-Hydroxy-3-[(2-methylpropyl)(phenylsulfonyl)amino]-1-(phenylmethyl)propyl]-2-methyl-3-(methylsulfonyl)-, [1S-[1R*(R*),2S*]]-], the pIC50 in data set [1] is 8.49. Further, the “TD50 (nM)” value in data set [2] is 213,000 nM. Also, the negative logarithm of the EC50 (pEC50) in data set [3] (setting [4]) was 8.00.
On the same counts, the results for `CCCN(C[C@@H](O)[C@H](Cc1ccccc1)NC(=O)[C@H](C)CS(C)(=O)=O)S(=O)(=O)c1ccccc1` (relative stereo) [Example 5, Propanamide, N-[2-Hydroxy-3-(propyl)(phenylsulfonyl)amino]-1-(phenylmethyl)propyl]-2-methyl-3-(methylsulfonyl)-, [1S-[1R* (R*), 2S*]]-] are 7.89, 438,000 nM and 7.60.
In the case of `CCCCN(C[C@@H](O)[C@H](Cc1ccccc1)NC(=O)[C@H](C)CS(C)(=O)=O)S(=O)(=O)c1ccc(OC)cc1` (relative stereo) [Example 8, Propanamide, N-[2-Hydroxy-3-[(butyl)(4-methoxyphenylsulfonyl)amino]-1-(phenylmethyl)propyl]-2-methyl-3-(methylsulfonyl)-,[1S-[1R*(R*),2S*]]-], the pIC50 in data set [1] was 8.51. The “TD50 (nM)” value in data set [2] was >1,000,000 nM. Moreover, in data set [3] (setting [4]), the pEC50 is 8.05.
In data set [1], `COc1ccc(S(=O)(=O)N(CC(C)C)C[C@@H](O)[C@H](Cc2ccccc2)NC(=O)[C@H](C)CS(C)(=O)=O)cc1` (relative stereo) [Example 7, propanamide, N-[2-Hydroxy-3-[(2-methylpropyl)(4-methoxyphenylsulfonyl)amino]-1-(phenylmethyl)propyl]-2-methyl-3-(methylsulfonyl)-,[1S-[1R*(R*),2S*]]-] gave a pIC50 of 8.72. The “TD50 (nM)” value in data set [2] was >1,000,000 nM. Further, the negative-log EC50 (pEC50) in data set [3] (setting [4]) was 8.70.
Taken in the same sequence, the figures for `COc1ccc(S(=O)(=O)N(CC(C)C)C[C@@H](O)[C@H](Cc2ccccc2)NC(=O)[C@H](C)CS(C)(=O)=O)cc1OC` (relative stereo) [Example 12, Propanamide, N-[2-Hydroxy-3-[(2-methylpropyl)(3.4-dimethoxyphenylsulfonyl)amino]-1-(phenylmethyl)propyl]-2-methyl-3-(methylsulfonyl)-,[1S-[1R*(R*),2S*]]-] were 7.42, 77,000 nM and 7.06.
As to `CC(=O)Nc1ccc(S(=O)(=O)N(CC(C)C)C[C@@H](O)[C@H](Cc2ccccc2)NC(=O)[C@H](C)CS(C)(=O)=O)cc1` (relative stereo) [Example 10, Propanamide, N-[2-Hydroxy-3-[(2-methylpropyl)(4-acetamido)phenylsulfonyl)amino]-1-(phenylmethyl)propyl]-2-methyl-3-(methylsulfonyl)-,[1S-[1R*(R*),2S*]]-], the “TD50 (nM)” value in data set [2] is given as 860,000 nM. Besides, the pEC50 in data set [3] is 6.65.
`CCCN(C[C@@H](O)[C@H](Cc1ccccc1)NC(=O)[C@H](C)CS(C)(=O)=O)S(=O)(=O)c1ccc(OC)cc1` (relative stereo) [Example 9, propanamide, N-[2-Hydroxy-3-[(propyl)(4-methoxyphenylsulfonyl)amino]-1-(phenylmethyl)propyl]-2-methyl-3-(methylsulfonyl)-,[1S-[1R*(R*),2S*]]-]: the negative logarithm of the IC50 (pIC50) in data set [1] was 8.39. Moreover, in data set [2], the “TD50 (nM)” value is >1,000,000 nM. The negative-log EC50 (pEC50) in data set [3] (setting [4]) was 7.80.
Taken in the same sequence, the figures for `CC(C)CCN(C[C@@H](O)[C@H](Cc1ccccc1)NC(=O)[C@H](C)CS(C)(=O)=O)S(=O)(=O)c1ccccc1` (relative stereo) [Example 4, Propanamide, N-[2-Hydroxy-3-[(3-methylbutyl)(phenylsulfonyl)amino]-1-(phenylmethyl)propyl]-2-methyl-3-(methylsulfonyl)-. [1S-[1R*(R*), 2S*]]-] were 8.52, >1,000,000 nM and 7.92.
Taken in the same sequence, the figures for `COc1ccc(S(=O)(=O)N(CCC(C)C)C[C@@H](O)[C@H](Cc2ccccc2)NC(=O)[C@H](C)CS(C)(=O)=O)cc1` (relative stereo) [Example 2, Propanamide, N-[2-Hydroxy-3-[(3-methylbutyl)(4-methoxyphenylsulfonyl)aminol-1-(phenylmethyl)propyl]-2-methyl-3-(methylsulfonyl)-[1S-[1R*(R*),2S*]]-] were 8.49, 90,000 nM and 7.92.
On the same counts, the results for `CCCCN(C[C@@H](O)[C@H](Cc1ccccc1)NC(=O)[C@H](C)CS(C)(=O)=O)S(=O)(=O)c1ccccc1` (relative stereo) [Example 6, Propanamide, N-[2-Hydroxy-3-(butyl)(phenylsulfonyl)amino]-1-(phenylmethyl)propyl]-2-methyl-3-(methylsulfonyl)-. [1S-[1R*(R*),2S*]]-] are 8.06, 133,000 nM and 7.54.
